These results are taken from PMC9718554, “Discovery of a fragment hit compound targeting D-Ala:D-Ala ligase of bacterial peptidoglycan biosynthesis” (Journal of Enzyme Inhibition and Medicinal Chemistry, 2022).

As a reminder, the MIC is the lowest concentration that inhibits growth of the organism. Read a low MIC as a more susceptible organism. A word on the Ki: it is a dissociation constant, usually derived from enzyme kinetics or from competition with a known ligand. The term IC50 denotes the concentration that inhibits the measured activity by half.

One experiment has as its system E. coli D22. The experiment is described as follows: MIC by broth microdilution. The experiment is classed as cell-based. The following applies: Escherichia coli, D22, 20 h. Here is the method:
(§1) The antibacterial activities of 3 were determined according to the European Committee for […] Susceptibility Testing recommendations and Clinical Laboratory Standards Institute protocol. Compound was tested against reference strains of E. coli and Staphylococcus aureus and against two mutant E. coli strains. E. coli D22 bears a mutation in the LpxC gene that increases membrane permeability, whereas E. coli N43 is an AcrA knockout strain (knockout of the cell membrane pump). […] The most plausible reason is the low on target activity of the hit fragment, however, also the poor penetration into the bacterial cell or efflux pumps effect cannot be ruled out. Although the lack of antibacterial activity is a limitation, hit compound 3 represents a fragment-sized starting point for the development of new compounds with increased DdlB inhibitory potency as well as antibacterial activity.
(§2) Minimum inhibitory concentrations (MICs) for 3 were determined by broth microdilution in Cation-adjusted Mueller-Hinton broth (MH) with TES, TREK Diagnostic Systems Ltd. against S. aureus ATCC 29213, E. coli ATCC 25922, E. coli N43 and E. coli D22. All of the experiments were performed in duplicate in 96-well plate format according to CLSI guidelines and European Committee for Antimicrobial Susceptibility Testing recommendations. The bacterial suspension of a specific bacterial strain was diluted with MH broth to obtain a final inoculum of 5 × 10^5 CFU/mL in the assay. Compound 3 dissolved in DMSO and inoculum were mixed together and incubated for 20 h at 35 °C. After incubation, the minimal inhibitory concentration (MIC) values were determined by visual inspection as the lowest dilution of compounds showing no turbidity. The MICs were determined against S. aureus (ATCC 29213), E. coli (ATCC 25922), E. coli N43, and E. coli D22 bacterial strains. D-Cycloserine was used as a positive control.

For the next experiment, the system named is E. coli N43. The experiment can be described thus: MIC by broth microdilution. The experiment is classed as cell-based. The following applies: Escherichia coli, N43, 20 h. The procedure:
as §1, §2
In general terms: Dilution methods test growth across graded concentrations, often in twofold steps.

For a further experiment, the system named is E. coli ATCC 25922. The experiment is described as follows: MIC by broth microdilution. The experiment is classed as cell-based. The procedure:
as §1, §2

A further experiment concerns S. aureus ATCC 29213. The experiment can be described thus: MIC by broth microdilution. The experiment is classed as cell-based. The procedure: as §1, §2
Experiment [1] addresses E. coli MurA enzyme (UDP-N-acetylglucosamine enolpyruvyl transferase) (Escherichia coli, UniProt P0A749). The experiment can be described thus: MurA inhibition assay (malachite green, deselection). The following applies: read-out: MurA inhibition, RA (Residual Activity).
Procedure: Inhibition of the enzyme was determined using an end-point malachite green assay by detecting the orthophosphate formed during the enzymatic reaction. […] The final DMSO concentration was 5%. […] A parallel experiment without the enzyme was performed to detect insoluble compounds under the assay conditions and subtracted from each measurement. All experiments were performed in duplicates. RAs were calculated with respect to blank experiments without tested compounds and with 5% DMSO.
The next experiment has as its target DdlB (Escherichia coli, UniProt P07862). The experiment is described as follows: Surface plasmon resonance, immobilised DdlB. Format: binding, E. coli. Conditions: steady-state affinity model, three titrations, 25 °C; read-out: apparent equilibrium dissociation constant KD. Here is the method: Figure 2. Fragment hit 3 targeting DdlB. (A) Dose–response inhibition of DdlB for 3. (B) SPR analysis of 3 with the immobilised DdlB. 3 was injected across DdlB in serial dilutions ranging from 78.125 to 5000 µM for 40 s at a flow rate of 30 μL/min, and dissociation was followed for 40 s. […] (C) Data were fitted to the steady-state affinity model to obtain the apparent equilibrium dissociation constant (KD). KD values are the mean ± standard deviation of three titrations. (D) ATP (blue sticks) and D-Ala-D-Ala (white sticks) binding sites of DdlB (PDB ID: 4C5C) with the co-crystallised ligands. (E) Computational docking of 3 to the ATP-binding site using extra-precision Glide (blue sticks) and QM-Polarized Ligand Docking (orange sticks) (PDB ID: 4C5C).
Binding of 3 to DdlB was confirmed by an orthogonal biophysical assay, surface plasmon resonance (SPR). […]
The SPR measurements were performed at the Infrastructural Centre for Analysis of Molecular Interactions at the Department of Biology, University of Ljubljana on a Biacore T200 (GE Healthcare) at 25 °C. […] The data were analysed with the Biacore T200 Evaluation Software and KD was determined by fitting the data to the steady state affinity model. The average KDs and standard deviations were determined from three titrations of 3.
A general note: In SPR one partner is held on a chip, and binding of the other changes the refractive index at the surface.

A further experiment addresses T1, DdlB from E. coli (Escherichia coli, UniProt P07862).
T1 construct: made in house; host or cells: E. coli
The experiment can be described thus: Steady-state kinetics, Ki determination against DdlB (ATP varied). Format: biochemical. Here is the method:
Binding of 3 to DdlB was confirmed by an orthogonal biophysical assay, surface plasmon resonance (SPR). The protein was covalently attached to the surface of the CM5 chip (∼7700 response units), and the ligand was titrated across the surface (Figure 2(B)). […] Steady-state kinetics were performed to gain mechanistic insight into the inhibition of compound 3 (Supplementary Figure S3 and Table S6).
For compound 3, Ki values were determined against DdlB from E. coli. Ki determinations were performed under similar conditions as described for DdlB inhibition assay, where different concentration of one substrate and fixed concentration of the other were used. The concentration of ATP (50, 100, 200, 300 and 500 µM) was varied at fixed concentration of D-Ala (700 µM). The concentrations of compound 3 were 0, 25, 50, 100, 250, 500, and 1000 µM. After 20 min of incubation, […] of Biomol® green reagent was added, and absorbance was read at 650 nm after 5 min. Initial data were fitted to competitive, (v/V = [S]/{KM(1 + [I]/KI)+ [S]}), non-competitive (v/V = [S]/{(1 + [I]/KI)(KM+ [S])}), uncompetitive (v/V = [S]/{KM+ [S](1 + [I]/KI)}) inhibition models in which v is observed reaction rate, V is the maximum rate, KM is the Michaelis constant, using SigmaPlot 12.0 software. The best fit was taken as the one having the highest R^2, the lowest standard error and the narrowest 95% confidence interval in each parameter (see Supplementary Table S6).

Experiment [2] concerns the target T2, E. coli DdlB enzyme (D-alanine:D-alanine ligase) (Escherichia coli, UniProt P07862).
T2 construct: made in house; host or cells: E. coli
The experiment is described as follows: biochemical. Conditions: 700 μM D-Ala, 100 μM ATP; read-out: DdlB inhibition IC50.

E. coli MurA enzyme (UDP-N-acetylglucosamine enolpyruvyl transferase), sequence (P0A749 whole entry, the tested form may be a part): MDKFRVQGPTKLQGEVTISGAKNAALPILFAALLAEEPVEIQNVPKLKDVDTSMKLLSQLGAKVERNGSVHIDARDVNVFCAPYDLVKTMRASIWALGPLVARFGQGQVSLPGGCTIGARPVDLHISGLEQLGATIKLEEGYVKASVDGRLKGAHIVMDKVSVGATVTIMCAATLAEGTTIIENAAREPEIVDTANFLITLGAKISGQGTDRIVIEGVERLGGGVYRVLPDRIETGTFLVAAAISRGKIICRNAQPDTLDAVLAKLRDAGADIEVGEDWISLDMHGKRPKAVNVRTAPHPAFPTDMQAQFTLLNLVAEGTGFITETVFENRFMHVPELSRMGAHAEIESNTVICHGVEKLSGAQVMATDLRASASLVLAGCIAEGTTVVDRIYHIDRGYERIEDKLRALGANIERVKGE

On to `Cc1cccc(-c2ccnc3c(C(=O)O)cnn23)c1` [Compound 3, 7-(m-Tolyl)pyrazolo[1,5-a]pyrimidine-3-carboxylic acid], for which the MIC in the experiment on E. coli D22 was > 128 µg/mL; against E. coli N43 it was > 128 µg/mL; with E. coli ATCC 25922 (Escherichia coli, ATCC25922, 20 h), > 128 µg/mL; in the experiment with S. aureus ATCC 29213 (Staphylococcus aureus, ATCC29213, 20 h), > 128 µg/mL. Further, the “antibacterial activity (in words)” value with E. coli ATCC 25922 (E. coli) and with S. aureus ATCC 29213 (S. aureus) was “no antibacterial activity” throughout. In experiment [1], the remaining activity at 5000 µM is 64%. In addition, the Kd at DdlB was determined as 3200 µM. The Ki on DdlB from E. coli (Competitive (full) model, best fit, ATP varied, D-Ala 700 µM) came to 20.7 ± 4.5 µM; on DdlB from E. coli (Competitive (partial) model), 20.7 ± 5.2 µM; on DdlB from E. coli (Noncompetitive (full) model), 221 ± 21.7 µM. Moreover, the inhibition mechanism result on DdlB from E. coli (with respect to ATP) was “competitive inhibitor with respect to ATP”. Moreover, the IC50 in experiment [2] turned out to be 168 µM.
